Data set [1] concerns HEK293. In words: cells. It counts as functional, cell-based. The settings on record: Homo sapiens.
Data set [2] addresses T1, Nuclear receptor subfamily 0 group B member 1 (Homo sapiens, UniProt P51843).
T1 sequence (P51843 whole entry): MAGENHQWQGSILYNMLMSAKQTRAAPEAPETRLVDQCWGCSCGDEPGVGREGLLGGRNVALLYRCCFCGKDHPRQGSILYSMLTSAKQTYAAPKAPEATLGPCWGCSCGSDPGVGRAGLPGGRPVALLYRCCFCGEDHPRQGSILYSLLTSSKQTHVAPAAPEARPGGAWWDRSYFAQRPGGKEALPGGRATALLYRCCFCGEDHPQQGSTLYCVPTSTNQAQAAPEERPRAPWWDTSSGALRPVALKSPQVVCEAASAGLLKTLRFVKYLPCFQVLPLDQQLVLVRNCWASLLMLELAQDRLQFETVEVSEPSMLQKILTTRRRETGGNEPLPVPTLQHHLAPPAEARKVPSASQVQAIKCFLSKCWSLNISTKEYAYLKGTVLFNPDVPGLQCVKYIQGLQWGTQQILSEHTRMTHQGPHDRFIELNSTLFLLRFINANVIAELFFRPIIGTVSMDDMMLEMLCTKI
In words: Luminescence-based cell-based high throughput dose response assay for inhibitors of the orphan nuclear receptor subfamily 0, group B, member 1 (DAX1; NR0B1). [Related pubchem assays (depositor defined):AID504766, AID504790]. Format: functional.

Data set [3] addresses T2, Rac GTPase-activating protein 1 (Homo sapiens, UniProt Q9H0H5).
T2 sequence (Q9H0H5 whole entry): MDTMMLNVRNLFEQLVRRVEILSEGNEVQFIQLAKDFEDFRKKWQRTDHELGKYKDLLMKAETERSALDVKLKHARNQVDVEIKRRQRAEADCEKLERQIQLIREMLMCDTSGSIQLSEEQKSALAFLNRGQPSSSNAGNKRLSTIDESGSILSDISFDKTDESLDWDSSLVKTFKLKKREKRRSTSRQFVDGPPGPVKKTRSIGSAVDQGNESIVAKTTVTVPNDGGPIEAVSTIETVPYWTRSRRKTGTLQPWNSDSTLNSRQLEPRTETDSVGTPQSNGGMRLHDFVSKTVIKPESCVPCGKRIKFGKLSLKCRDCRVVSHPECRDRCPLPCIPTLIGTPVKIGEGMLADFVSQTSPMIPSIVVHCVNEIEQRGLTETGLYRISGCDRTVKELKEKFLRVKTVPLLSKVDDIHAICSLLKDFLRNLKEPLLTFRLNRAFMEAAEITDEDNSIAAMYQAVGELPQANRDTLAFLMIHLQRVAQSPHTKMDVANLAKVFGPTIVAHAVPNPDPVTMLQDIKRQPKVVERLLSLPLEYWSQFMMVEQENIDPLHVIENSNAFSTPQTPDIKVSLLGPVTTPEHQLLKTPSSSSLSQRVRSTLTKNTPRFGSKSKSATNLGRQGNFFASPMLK
In words: blockers of MgcRacGAP-driven Rac1 GTP hydrolysis – biochemical, ADP Hunter fluorescence, primary and confirmatory, confirmation (AID 624330). Format: functional.

The target of data set [4] is T3, CAAX prenyl protease 2 (Homo sapiens, UniProt Q9Y256).
T3 sequence (Q9Y256 whole entry): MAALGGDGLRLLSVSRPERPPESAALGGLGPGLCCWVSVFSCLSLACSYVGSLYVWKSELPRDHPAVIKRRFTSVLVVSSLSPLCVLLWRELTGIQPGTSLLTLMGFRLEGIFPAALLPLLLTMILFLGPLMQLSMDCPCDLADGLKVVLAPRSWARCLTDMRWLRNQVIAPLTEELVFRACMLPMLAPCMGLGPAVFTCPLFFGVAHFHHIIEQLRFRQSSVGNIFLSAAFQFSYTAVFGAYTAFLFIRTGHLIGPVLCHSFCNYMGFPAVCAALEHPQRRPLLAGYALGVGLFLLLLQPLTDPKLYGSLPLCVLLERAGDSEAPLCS
The data set is described as follows: inhibition of Ras-converting CAAX protease Rce1 – biochemical, yeast membranes, quenched-peptide fluorescence, cherry-pick, dose response (AID 588849).

Data set [5] has as its target FAD-linked sulfhydryl oxidase ALR (Homo sapiens, UniProt P55789). The data set is described as follows: ALR-catalysed DTT oxidation blockers – biochemical, H2O2 detection, luminescence, cherry-pick, dose response (AID 493248).
A short description of data set [6]: viability loss in HeLa cells – cytotoxicity control for MgcRacGAP inhibitor project, dose response (AID 624300). Format: functional.
Data set [7] has as its target Trypsin (Sus scrofa, UniProt P00761). The data set is described as follows: trypsin protease activity blockade – biochemical, quenched peptide fluorescence, cherry-pick, selectivity assay for Rce1 protease inhibitor project, dose response (AID 488789).
In data set [8] the target is Cytochrome P450 2D6 (Homo sapiens, UniProt P10635).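 Further: CYP2D6 member of a cytochrome P450 panel assay.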
Data set [9] addresses Cytochrome P450 2C19 (Homo sapiens, UniProt P33261). In words: Cytochrome panel assay with activity outcomes. Panel member name: p450-cyp2c19 Compounds with AC50 equal or less than 10 uM are considered active. It counts as functional.
Data set [10] deals with T4, Cytochrome P450 3A4 (Homo sapiens, UniProt P08684).
Data set [11] has as its system A-375. In words: proliferation inhibition in MITF-low A375 cells – cell-based, cherry-pick samples, set 2, counter-screen for MITF modulator project, dose response (AID 540335). Format: functional. The settings on record: Homo sapiens.
Data set [12] can be described thus: Luminescence Cell-Based Dose Retest to Confirm Inhibitors of Cancer Stem Cells. [Related pubchem assays (depositor defined):AID2717, AID2721]. It counts as functional. To be noted: Homo sapiens.
For data set [13], the target named is T5, Ubiquitin-conjugating enzyme E2 N (Homo sapiens, UniProt P61088).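 Further: Dose-response confirmation in a TR-FRET assay detecting UBC13-driven polyubiquitin chain formation, inhibition measured.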
T5 sequence (P61088 whole entry): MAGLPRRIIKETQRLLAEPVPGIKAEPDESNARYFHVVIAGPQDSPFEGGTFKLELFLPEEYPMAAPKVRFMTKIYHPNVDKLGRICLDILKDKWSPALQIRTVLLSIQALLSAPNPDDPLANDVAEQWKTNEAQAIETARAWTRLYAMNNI
It counts as functional.

For data set [14], the target named is Cytochrome P450 2C9 (Homo sapiens, UniProt P11712).
The nature of data set [15]: A cytotoxicity screen of small molecule inhibitors of the PhoP region in Salmonella typhi identified in the primary screen. [Related pubchem assays: 1850, 1864, 1985 ]. It counts as functional.
Data set [16] deals with HeLa. In words: ATP-based viability loss in HeLa cells – cell-based, CellTiter-Glo luminescence, cherry-pick samples, cytotoxicity control for MITF activator project, dose response (AID 540259). To be noted: Homo sapiens. Format: functional. Background: In ATP-based viability assays light output follows the ATP content of the culture.
For data set [17], the system named is Streptococcus. The data set is described as follows: GAS UMAA2166 growth inhibition – luminescence, BacTiterGlo, counter-screen for streptokinase expression inhibitor project, dose response (AID 1915).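 Further: potency for reduction of bacterial viability or growth.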 Format: functional, organism-based. In general terms: The purpose of a counterscreen is to sort out artefacts and off-target activity.
The target of data set [18] is T6, Small ubiquitin-related modifier 1 (Homo sapiens, UniProt P63165). The data set is described as follows: SUMO1 protein interaction blockers, potency – biochemical, fluorescence polarization, uHTS hits, dose response (AID 624382). To be noted: read-out: IC50_Mean. It counts as functional. A general note: Polarisation of emitted light reports the rotation of a fluorescent probe.

The target of data set [19] is T7, Streptokinase A (Streptococcus pyogenes serotype M1, UniProt P10520).
T7 sequence (P10520 whole entry): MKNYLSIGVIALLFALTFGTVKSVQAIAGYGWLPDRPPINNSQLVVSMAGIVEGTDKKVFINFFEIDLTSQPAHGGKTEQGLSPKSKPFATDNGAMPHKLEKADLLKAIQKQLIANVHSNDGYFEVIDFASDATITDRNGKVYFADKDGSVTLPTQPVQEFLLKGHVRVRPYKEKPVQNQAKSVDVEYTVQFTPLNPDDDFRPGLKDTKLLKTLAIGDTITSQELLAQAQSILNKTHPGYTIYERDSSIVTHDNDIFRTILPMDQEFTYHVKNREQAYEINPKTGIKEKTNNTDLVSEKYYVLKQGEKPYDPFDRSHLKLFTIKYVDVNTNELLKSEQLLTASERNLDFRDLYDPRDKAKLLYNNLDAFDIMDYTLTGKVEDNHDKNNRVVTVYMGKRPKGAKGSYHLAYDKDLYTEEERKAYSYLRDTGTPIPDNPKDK
The data set is described as follows: viability-normalized secreted streptokinase activity reduction – plasminogen activation absorbance, OD405, dose response (AID 1914).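 Further: secreted streptokinase activity via plasminogen activation per viability signal from cell pellet.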 Format: functional, Streptococcus pyogenes M1 GAS.

Data set [20] deals with Induced myeloid leukemia cell differentiation protein Mcl-1 (Homo sapiens, UniProt Q07820). It counts as functional.
Data set [21] has as its target T6, Small ubiquitin-related modifier 1. The data set is described as follows: SUMO1 protein-protein binding blockers, potency – biochemical, FRET, dose response (AID 624383). Format: functional. The settings on record: read-out: IC50_Mean.
The subject of data set [22] is Streptococcus sp. 'group A'. In words: Streptococcus pyogenes SK(-)GAS viability under kanamycin – luminescence, BacTiterGlo, confirmation, counter-screen for streptokinase expression inhibitor project, dose response (AID 1900). It counts as functional, organism-based.
In data set [23] the target is Disintegrin and metalloproteinase domain-containing protein 17 (Homo sapiens, UniProt P78536). In words: exosite inhibitors of ADAM17, dose response, biochemical (AID 743260).
Data set [24] is described as follows: cells. It counts as functional, cell-based.
Data set [25] can be described thus: inhibition of ADAM10 peptide cleavage – biochemical, FRET peptide substrate, recombinant human ADAM10, selectivity assay for ADAM17 exosite inhibitor project, dose response (AID 743259).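 Further: ADAM10 enzyme cleaving a FRET peptide substrate.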
Data set [26] in a line: alpha-synuclein stem-loop luciferase translation blockers – H4 neuroglioma cells, luminescence, confirmation (AID 1988). Format: functional, cell-based.
Data set [27] is described as follows: decrease of insulin promoter-GFP reporter – imaging, high-content screening, mouse beta cells (AID 1628). To be noted: MIN6. Format: functional.
Data set [28] in a line: Luminescence Cell-Based Dose Response HTS to Identify Inhibitors of 5'UTR Stem-Loop Driven Prion Protein mRNA Translation in H4 Neuroglioblastoma Cells. [Related pubchem assays: 1827 (Project Summary), 1813 (Primary HTS)]. Format: functional.
The nature of data set [29]: luciferase reporter signal suppression in cells – H4 neuroglioma cells, luminescence, dose response (AID 1990). It counts as functional, cell-based.
Data set [30] in a line: cells. It counts as functional, cell-based. This is another data set of the same source.
The nature of data set [31]: MIN6 cell viability loss – mouse insulinoma, cytotoxicity control, dose response (AID 2122).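 Further: confirmatory high-throughput counterscreen run to flag cytotoxic compounds.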 Format: functional.
Data set [32] addresses T4, Cytochrome P450 3A4. This is another data set of the same source.

Activity calls are given as the source filed them.

Cytochrome P450 2D6, sequence (P10635 whole entry): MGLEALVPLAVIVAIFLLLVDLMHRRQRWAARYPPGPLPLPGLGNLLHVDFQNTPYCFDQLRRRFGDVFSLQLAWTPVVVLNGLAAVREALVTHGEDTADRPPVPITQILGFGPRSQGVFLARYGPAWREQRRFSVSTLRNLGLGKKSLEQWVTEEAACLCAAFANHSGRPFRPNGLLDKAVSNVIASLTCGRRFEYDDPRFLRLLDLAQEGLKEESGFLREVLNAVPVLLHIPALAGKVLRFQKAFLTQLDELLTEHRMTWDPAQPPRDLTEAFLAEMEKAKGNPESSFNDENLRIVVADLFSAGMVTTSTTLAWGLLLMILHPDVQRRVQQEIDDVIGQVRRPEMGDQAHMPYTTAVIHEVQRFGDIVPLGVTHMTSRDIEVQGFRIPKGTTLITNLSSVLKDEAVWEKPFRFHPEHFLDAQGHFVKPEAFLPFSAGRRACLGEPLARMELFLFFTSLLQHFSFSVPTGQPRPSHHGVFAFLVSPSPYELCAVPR
T4 sequence (P08684 whole entry): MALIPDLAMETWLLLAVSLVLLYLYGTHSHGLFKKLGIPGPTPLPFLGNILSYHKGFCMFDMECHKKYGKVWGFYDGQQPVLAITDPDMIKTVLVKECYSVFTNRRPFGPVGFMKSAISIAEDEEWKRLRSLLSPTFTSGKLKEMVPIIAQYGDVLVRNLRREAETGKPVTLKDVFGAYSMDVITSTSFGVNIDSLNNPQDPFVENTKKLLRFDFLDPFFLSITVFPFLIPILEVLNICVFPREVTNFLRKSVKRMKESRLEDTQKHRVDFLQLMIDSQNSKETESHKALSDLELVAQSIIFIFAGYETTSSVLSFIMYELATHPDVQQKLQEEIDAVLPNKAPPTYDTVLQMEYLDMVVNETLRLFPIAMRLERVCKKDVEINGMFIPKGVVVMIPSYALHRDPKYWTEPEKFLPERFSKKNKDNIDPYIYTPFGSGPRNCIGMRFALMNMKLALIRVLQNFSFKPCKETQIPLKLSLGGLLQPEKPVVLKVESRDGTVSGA
T6 sequence (P63165 whole entry): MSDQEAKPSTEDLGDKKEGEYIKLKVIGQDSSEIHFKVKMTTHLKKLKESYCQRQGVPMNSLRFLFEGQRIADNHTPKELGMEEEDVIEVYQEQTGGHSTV
Cytochrome P450 2C19, sequence (P33261 whole entry): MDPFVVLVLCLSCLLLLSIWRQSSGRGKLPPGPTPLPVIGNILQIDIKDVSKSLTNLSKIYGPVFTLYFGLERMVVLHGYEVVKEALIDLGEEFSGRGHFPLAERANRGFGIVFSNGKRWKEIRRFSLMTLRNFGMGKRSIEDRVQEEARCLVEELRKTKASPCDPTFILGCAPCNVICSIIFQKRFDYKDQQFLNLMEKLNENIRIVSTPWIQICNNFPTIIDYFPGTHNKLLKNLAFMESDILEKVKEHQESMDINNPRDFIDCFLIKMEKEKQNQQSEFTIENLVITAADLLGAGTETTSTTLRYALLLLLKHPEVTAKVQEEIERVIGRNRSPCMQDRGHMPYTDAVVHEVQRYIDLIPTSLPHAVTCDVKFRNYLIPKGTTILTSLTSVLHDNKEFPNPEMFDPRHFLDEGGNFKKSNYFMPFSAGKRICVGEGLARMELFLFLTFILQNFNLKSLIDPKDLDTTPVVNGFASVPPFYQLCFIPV
Cytochrome P450 2C9, sequence (P11712 whole entry): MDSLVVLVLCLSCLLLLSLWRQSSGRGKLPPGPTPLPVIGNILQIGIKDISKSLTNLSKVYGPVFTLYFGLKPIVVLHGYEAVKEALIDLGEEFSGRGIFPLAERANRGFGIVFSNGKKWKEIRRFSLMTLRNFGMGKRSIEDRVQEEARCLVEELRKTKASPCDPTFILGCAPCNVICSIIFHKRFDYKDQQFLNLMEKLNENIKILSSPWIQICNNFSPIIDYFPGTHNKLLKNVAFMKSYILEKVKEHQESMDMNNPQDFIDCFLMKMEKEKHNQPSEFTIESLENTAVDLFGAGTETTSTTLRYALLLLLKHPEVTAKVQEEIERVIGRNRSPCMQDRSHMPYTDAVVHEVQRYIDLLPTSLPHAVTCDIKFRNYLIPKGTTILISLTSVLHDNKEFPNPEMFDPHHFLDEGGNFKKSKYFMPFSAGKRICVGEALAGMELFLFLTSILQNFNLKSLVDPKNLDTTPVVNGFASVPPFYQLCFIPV
Induced myeloid leukemia cell differentiation protein Mcl-1, sequence (Q07820 whole entry): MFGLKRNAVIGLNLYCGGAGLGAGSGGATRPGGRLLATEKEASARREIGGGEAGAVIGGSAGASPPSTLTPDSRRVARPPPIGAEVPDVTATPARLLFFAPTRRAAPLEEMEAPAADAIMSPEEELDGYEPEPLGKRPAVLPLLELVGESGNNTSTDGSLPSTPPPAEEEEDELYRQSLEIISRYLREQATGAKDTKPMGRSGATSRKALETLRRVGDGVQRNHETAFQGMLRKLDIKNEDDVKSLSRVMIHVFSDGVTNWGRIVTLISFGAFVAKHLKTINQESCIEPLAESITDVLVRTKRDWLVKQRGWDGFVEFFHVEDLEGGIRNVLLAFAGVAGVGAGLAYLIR
Trypsin, sequence (P00761 whole entry): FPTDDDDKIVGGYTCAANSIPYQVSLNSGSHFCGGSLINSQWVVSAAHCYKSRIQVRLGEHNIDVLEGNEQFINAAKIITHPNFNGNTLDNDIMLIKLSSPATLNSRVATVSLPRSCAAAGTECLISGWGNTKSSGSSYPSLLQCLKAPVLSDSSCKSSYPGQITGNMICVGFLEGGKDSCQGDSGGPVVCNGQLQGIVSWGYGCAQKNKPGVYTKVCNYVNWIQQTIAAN
FAD-linked sulfhydryl oxidase ALR, sequence (P55789 whole entry): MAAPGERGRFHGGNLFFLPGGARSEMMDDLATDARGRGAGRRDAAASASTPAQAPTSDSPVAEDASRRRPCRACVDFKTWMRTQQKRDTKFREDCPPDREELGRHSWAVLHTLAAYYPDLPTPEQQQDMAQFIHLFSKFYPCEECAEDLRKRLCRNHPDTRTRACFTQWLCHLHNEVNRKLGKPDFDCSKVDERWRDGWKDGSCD
Disintegrin and metalloproteinase domain-containing protein 17, sequence (P78536 whole entry, the tested form may be a part): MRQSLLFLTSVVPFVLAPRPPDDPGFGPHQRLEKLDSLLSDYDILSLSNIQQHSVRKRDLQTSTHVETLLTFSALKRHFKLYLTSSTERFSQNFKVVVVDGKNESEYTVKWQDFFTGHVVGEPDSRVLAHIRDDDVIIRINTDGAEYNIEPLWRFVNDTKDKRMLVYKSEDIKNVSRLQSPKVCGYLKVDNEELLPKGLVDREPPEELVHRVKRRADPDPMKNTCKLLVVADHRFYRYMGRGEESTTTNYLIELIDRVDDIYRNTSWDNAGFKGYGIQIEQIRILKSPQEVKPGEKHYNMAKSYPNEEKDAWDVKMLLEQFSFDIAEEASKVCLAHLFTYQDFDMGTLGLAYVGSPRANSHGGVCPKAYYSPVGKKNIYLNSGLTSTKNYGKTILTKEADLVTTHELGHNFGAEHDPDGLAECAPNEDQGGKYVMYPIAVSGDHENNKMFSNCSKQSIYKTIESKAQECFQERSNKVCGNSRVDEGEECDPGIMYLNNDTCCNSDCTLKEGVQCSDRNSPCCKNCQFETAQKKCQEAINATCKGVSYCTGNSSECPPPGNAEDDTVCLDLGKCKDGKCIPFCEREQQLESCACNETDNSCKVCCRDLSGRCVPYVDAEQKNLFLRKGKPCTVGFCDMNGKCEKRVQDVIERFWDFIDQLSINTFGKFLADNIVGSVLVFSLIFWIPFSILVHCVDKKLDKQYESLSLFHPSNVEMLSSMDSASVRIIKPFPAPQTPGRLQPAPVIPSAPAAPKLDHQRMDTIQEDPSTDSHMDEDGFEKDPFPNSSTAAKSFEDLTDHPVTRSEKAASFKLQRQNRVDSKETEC

As for `O=C(c1ccccc1C(F)(F)F)N1CCN(S(=O)(=O)c2ccccc2)CC1`, the IC50 in data set [1] and in data set [2] was > 67.6 µM (inactive) throughout.
Take `Nc1ccc2[nH]c(-c3ccccc3)nc2c1`: in data set [3], the IC50 is 30.2 µM (active). Moreover, the AC50 in data set [4] is 2.12 µM (active); in data set [5], 2.19 µM (active); in data set [7], 3.48 µM (active). Further, the CC50 in data set [6] is 100 µM (active).
Regarding `Cc1ccc(NC(=O)NNC(=O)C2CC(c3cccnc3)=NO2)cc1` (stereo not drawn), the concentration at half-maximal activity (AC50) entry in [8] and in data set [9] was “inconclusive” throughout.
Take `O=C(c1cccc(F)c1)N1CCC2(CCN(Cc3nccs3)CC2)CC1`: the AC50 result in data set [10] is “inconclusive”.
Turning to `NCCc1ccc(OCc2ccccc2)c(OCc2ccccc2)c1`, the AC50 in data set [11] is 30.2 µM (active); in [12], 11.2 µM (active). Further, the IC50 in data set [13] was > 20 µM (inactive).
In the case of `CSc1nc2nc3c(c(O)n2n1)CN(Cc1ccccc1)CC3`, the results for the AC50 in data set [14] and in data set [10] were 15.8 µM (inconclusive) and “inconclusive”, respectively.
As for `Cc1nc(N2CCOCC2)c2c(C)c(C(=O)Nc3ccccc3C(F)(F)F)sc2n1`, the AC50 in [4] is 15 µM (active). For the same molecule, the EC50 in data set [15] is > 50 µM (active).
Turning to `COc1ccc(-c2cc3nc4ccccc4n3c(N)c2C#N)cc1`, the AC50 in [16] is 143 µM (active). In addition, the EC50 in [17] is 15.7 µM (active); in data set [19], > 150 µM (not active); in data set [22], 1.45 µM (active). Moreover, the IC50 is > 66.6 µM (inactive) in data set [18], 2.52 µM (active) in data set [20] and 7.98 µM (active) in data set [21].
For the molecule `CCOC(=O)c1ccc(NC(=O)C(=O)NCC2CCCO2)cc1` (stereo not drawn), the AC50 result was “inconclusive” in [8], 25.1 µM (inconclusive) in [14] and 31.6 µM (inconclusive) in [9] (read-out: AC50).
In the case of `COC(=O)c1cccc2c1NC(=O)C2=O`, the IC50 in data set [1] and in data set [2] was > 67.6 µM (inactive) in each case.
For `c1ccc2cc(Sc3ncnc4c3oc3ccccc34)ccc2c1`, the AC50 entry in [10] is “inconclusive”.
Regarding `COc1ccc(-c2cn3cccc(C)c3n2)cc1F`, in data set [16], the AC50 is > 350 µM (inactive).
Consider `O=C(NC(CSCc1ccccc1)C(=O)N/N=C/c1ccc(O)cc1O)c1ccc([N+](=O)[O-])cc1` (stereo not drawn), for which the IC50 in data set [23] was > 69.5 µM (inactive); in [25], > 69.5 µM (inactive); in data set [27] it was 2.19 µM (active); in data set [31] it was 3.07 µM (active). Further, the EC50 was > 350 µM (not active) in [24]; 5.27 µM (active) in data set [26]; 10.9 µM (active) in [28]; 6.53 µM (inconclusive) in data set [29]; 9.52 µM (active) in data set [30]. In data set [12], the AC50 was 3 µM (active).
`Cc1cc(C)nc(SCC(=O)N/N=C\c2sccc2C)n1`: the values for the AC50 result in [8] and in data set [32] were “inconclusive” and 15.8 µM (inconclusive), respectively.

Usually AC50 stands for the concentration giving half of the maximal activity seen. Broadly, the CC50 is the concentration that lowers cell viability or growth by half. Usually EC50 stands for the concentration needed to bring the measured effect to its halfway point.

The values are drawn from ChEMBL document CHEMBL1201862, “PubChem BioAssay data set” (2004).
